Assay results published in US6800652B2, “Diaryl compounds” (Pfizer Inc., priority 2002, dated 2004).

Experiments:
Assay type in all cases: cell-based
[1] = molecular target: T1, dopamine transporter (hDAT) (Homo sapiens, UniProt Q01959); assay: Inhibition of 3H-dopamine uptake in HEK-293 cells stably transfected with hDAT; conditions: HEK-293 hDAT cells, 3H-Dopamine 200 nM, 5 min incubation, room temperature; read-out: DRI (dopamine re-uptake inhibition) IC50
T1 construct: expressed in transfected cells
T1 sequence (Q01959 whole entry): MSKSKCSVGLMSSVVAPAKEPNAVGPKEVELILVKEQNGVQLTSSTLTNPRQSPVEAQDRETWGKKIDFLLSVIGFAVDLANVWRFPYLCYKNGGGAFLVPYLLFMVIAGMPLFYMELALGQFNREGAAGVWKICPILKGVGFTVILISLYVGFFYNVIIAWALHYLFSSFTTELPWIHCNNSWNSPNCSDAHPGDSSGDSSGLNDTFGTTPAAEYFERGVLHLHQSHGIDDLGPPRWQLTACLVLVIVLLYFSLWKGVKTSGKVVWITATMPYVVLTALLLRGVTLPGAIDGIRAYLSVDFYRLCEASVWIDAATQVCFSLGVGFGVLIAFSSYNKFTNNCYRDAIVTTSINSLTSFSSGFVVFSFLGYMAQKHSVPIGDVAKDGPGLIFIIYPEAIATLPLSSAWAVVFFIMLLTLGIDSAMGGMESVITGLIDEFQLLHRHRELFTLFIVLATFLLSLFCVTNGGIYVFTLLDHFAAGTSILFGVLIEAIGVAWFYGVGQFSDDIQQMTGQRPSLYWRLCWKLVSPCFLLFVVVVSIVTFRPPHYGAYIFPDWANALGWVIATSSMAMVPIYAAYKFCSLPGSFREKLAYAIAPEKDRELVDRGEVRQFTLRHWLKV
Description: (§1) Human embryonic kidney cells (HEK-293) stably transfected with either the human serotonin transporter (hSERT), noradrenaline transporter (hNET) or dopamine transporter (hDAT) were cultured under standard cell culture techniques (cells were grown at 37° C. and 5% CO2 in DMEM-culture media (supplemented with 10% dialysed foetal calf serum (FCS), 2 mM I-glutamine and 250 μg/ml geneticin)). Cells were harvested for the assay to yield a cell suspension of 750,000 cells/ml.
(§2) All test compounds were dissolved in 100% DMSO and diluted down in assay buffer to give appropriate test concentrations. Assays were carried out in 96-well filter bottom plates. Cells (7500 cells/assay well) were pre-incubated in standard assay buffer containing either test compound, standard inhibitor or compound vehicle (1% DMSO) for 5 minutes. Reactions were started by addition of either ^3H-Serotonin, ^3H-Noradrenaline or ^3H-Dopamine substrates. All reactions were carried out at room temperature in a shaking incubator. Incubation times were 5 minutes for the hSERT and hDAT assays and 15 minutes for the hNET assay. […] The quantity of ^3H-substrate incorporated into the cells was then quantified.
(§3) Assay plates were dried in a microwave oven, scintillation fluid added, and radioactivity measured. […]

[2] = molecular target: T2, human serotonin transporter (hSERT) (Homo sapiens, UniProt P31645); assay: Inhibition of 3H-serotonin uptake in HEK-293 cells stably transfected with hSERT; conditions: HEK-293 hSERT cells, 3H-5HT 50 nM, 5 min incubation, room temperature; read-out: SRI (serotonin re-uptake inhibition) IC50
T2 construct: expressed in transfected cells
T2 sequence (P31645 whole entry): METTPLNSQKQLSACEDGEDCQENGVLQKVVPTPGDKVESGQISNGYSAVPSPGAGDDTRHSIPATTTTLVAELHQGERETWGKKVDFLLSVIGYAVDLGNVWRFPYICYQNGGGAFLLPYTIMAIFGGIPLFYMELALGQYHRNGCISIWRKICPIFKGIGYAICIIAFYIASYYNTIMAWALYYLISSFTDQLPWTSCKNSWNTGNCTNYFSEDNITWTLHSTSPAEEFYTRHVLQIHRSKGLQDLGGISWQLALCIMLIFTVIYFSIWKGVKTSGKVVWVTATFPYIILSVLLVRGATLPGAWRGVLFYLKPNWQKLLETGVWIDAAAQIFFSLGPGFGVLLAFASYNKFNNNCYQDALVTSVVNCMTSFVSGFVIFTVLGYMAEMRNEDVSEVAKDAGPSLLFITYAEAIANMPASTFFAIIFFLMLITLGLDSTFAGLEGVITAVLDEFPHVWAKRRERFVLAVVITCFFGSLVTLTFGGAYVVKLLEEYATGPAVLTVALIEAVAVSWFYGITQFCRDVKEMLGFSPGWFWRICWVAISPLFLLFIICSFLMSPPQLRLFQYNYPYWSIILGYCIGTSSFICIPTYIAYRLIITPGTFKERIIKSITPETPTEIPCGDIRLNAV
Description: A number of compounds were tested for biological activity by their ability to inhibit the uptake of serotonin by human serotonin transporters as follows.
as §1
as §2, with “incubator.” for “incubator. Incubation times were 5 minutes for the hSERT and hDAT assays and 15 minutes for the hNET assay.”
as §3

[3] = molecular target: T3, noradrenaline transporter (hNET) (Homo sapiens, UniProt P23975); assay: Inhibition of 3H-noradrenaline uptake in HEK-293 cells stably transfected with hNET; conditions: HEK-293 hNET cells, 3H-Noradrenaline 200 nM, 15 min incubation, room temperature; read-out: NRI (noradrenaline re-uptake inhibition) IC50
T3 construct: expressed in transfected cells
T3 sequence (P23975 whole entry): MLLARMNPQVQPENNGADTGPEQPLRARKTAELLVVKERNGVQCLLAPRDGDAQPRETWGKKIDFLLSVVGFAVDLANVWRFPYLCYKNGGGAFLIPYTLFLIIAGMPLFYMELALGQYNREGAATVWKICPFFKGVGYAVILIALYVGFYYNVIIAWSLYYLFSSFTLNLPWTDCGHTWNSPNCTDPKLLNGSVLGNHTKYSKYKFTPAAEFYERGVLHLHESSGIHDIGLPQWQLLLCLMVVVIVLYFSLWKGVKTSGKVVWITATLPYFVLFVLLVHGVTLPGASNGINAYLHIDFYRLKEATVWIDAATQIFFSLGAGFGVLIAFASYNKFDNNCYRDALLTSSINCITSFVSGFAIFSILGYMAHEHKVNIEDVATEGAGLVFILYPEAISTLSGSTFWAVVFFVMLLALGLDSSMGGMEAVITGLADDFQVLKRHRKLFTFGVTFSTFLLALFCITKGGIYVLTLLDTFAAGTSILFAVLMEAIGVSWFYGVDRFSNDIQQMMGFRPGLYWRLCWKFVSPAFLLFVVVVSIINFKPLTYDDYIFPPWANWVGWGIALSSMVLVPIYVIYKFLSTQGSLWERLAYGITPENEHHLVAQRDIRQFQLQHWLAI
Description: as §1, §2, §3

SMILES: CSc1ccc(Sc2ccncc2CN(C)C)cc1 [Example 2, N,N-Dimethyl-N-[(4-{[4-(methylsulfanyl)phenyl]sulfanyl}-3-pyridinyl)methyl]amine]
- IC50 [1]: 11700 nM
- IC50 [2]: 2.2 nM
- IC50 [3]: 564 nM
